# Tests used:
# Assay in all cases: Test D controlled growth environment herbicide test, pre- and postemergence
# Assay type in all cases: in vivo
# [1] = tested on: lambsquarters (Chenopodium album)
# Source text: (§1) Seeds of plant species selected from bluegrass (annual bluegrass, Poa annua), blackgrass (Alopecurus myosuroides), Canada thistle (Cirsium arvense), canarygrass (Phalaris minor), chickweed (common chickweed, Stellaria media), geranium, cutleaf (cutleaf geranium, Geranium dissectum), galium (catchweed bedstraw, Galium aparine), bromegrass, downy (downy bromegrass, Bromus tectorum), field poppy (Papaver rhoeas), field violet (Viola arvensis), foxtail, green (green foxtail, Setaria viridis), deadnettle (henbit deadnettle, Lamium amplexicaule), ryegrass, Italian (Italian ryegrass, Lolium multiflorum), kochia (Kochia scoparia), lambsquarters (Chenopodium album), oilseed rape (Brassica napus), pigweed (Amaranthus retroflexus), chamomile (scentless chamomile, Matricaria inodora), Russian thistle (Salsola kali), speedwell (bird's-eye speedwell, Veronica persica), barley, spring (spring barley, Hordeum vulgare), wheat, spring (spring wheat, Triticum aestivum), buckwheat, wild (wild buckwheat, Polygonum convolvulus), mustard, wild (wild mustard, Sinapis arvensis), oat, wild (wild oat, Avena fatua), radish, wild (wild radish, Raphanus raphanistrum), windgrass (Apera spica-venti), barley, winter (winter barley, Hordeum vulgare), and wheat, winter (winter wheat, Triticum aestivum) were planted into a silt loam soil and treated preemergence with test chemicals formulated in a non-phytotoxic solvent mixture which included a surfactant.
# (§2) At the same time, these species were planted in pots containing Redi-Earth® planting medium (Scotts Company, 14111 Scottslawn Road, Marysville, Ohio 43041) comprising spaghnum peat moss, vermiculite, wetting agent and starter nutrients and treated with postemergence applications of the test chemicals formulated in the same manner. Plants ranged in height from 2 to 18 cm (1- to 4-leaf stage). Treated plants and controls were maintained in a controlled growth environment for 14 to 21 d after which time all species were compared to controls and visually evaluated. Plant response ratings, summarized in Table D, are based on a scale of 0 to 100 where 0 is no effect and 100 is complete control. A dash (-) response means no test result.
# [2] = tested on: chickweed (common chickweed, Stellaria media)
# Source text: as §1, §2
# [3] = tested on: barley, winter (winter barley, Hordeum vulgare)
# Source text: as §1, §2
# kochia (Kochia scoparia) = tested on: kochia (Kochia scoparia)
# Source text: as §1, §2
# [4] = tested on: mustard, wild (wild mustard, Sinapis arvensis)
# Source text: as §1, §2
# [5] = tested on: galium (catchweed bedstraw, Galium aparine)
# Source text: as §1, §2
# [6] = tested on: wheat, winter (winter wheat, Triticum aestivum)
# Source text: as §1, §2
# [7] = tested on: field poppy (Papaver rhoeas)
# Source text: as §1, §2
# [8] = tested on: bromegrass, downy (downy bromegrass, Bromus tectorum)
# Source text: as §1, §2
# [9] = tested on: windgrass (Apera spica-venti)
# Source text: as §1, §2
# [10] = tested on: Russian thistle (Salsola kali)
# Source text: as §1, §2
# [11] = tested on: speedwell (bird's-eye speedwell, Veronica persica)
# Source text: as §1, §2
# [12] = tested on: deadnettle (henbit deadnettle, Lamium amplexicaule)
# Source text: as §1, §2
# [13] = Postemergence, 31 g ai/ha, scale 0 to 100 (0 no effect, 100 complete control)
# [14] = Postemergence, 125 g ai/ha, visual rating on scale 0 (no effect) to 100 (complete control), 14 to 21 d
# [15] = Postemergence, 250 g ai/ha, scale 0 to 100 (0 no effect, 100 complete control)
# [16] = Preemergence, 62 g ai/ha, scale 0 to 100 (0 no effect, 100 complete control)
# [17] = Preemergence, 125 g ai/ha, scale 0 to 100 (0 no effect, 100 complete control)
# [18] = Preemergence, 250 g ai/ha, scale 0 to 100 (0 no effect, 100 complete control)
# [19] = postemergence, 62 g ai/ha, scale 0 to 100, 0 no effect, 100 complete control
smiles,measurement,setting,value
CC(=O)Oc1c(C)nn(C)c(=O)c1-c1c(C)sc2ccc(C)cc12 [Compound 25],Lambsquarters plant response rating,[1]; [13],90
same,"Plant response rating, Lambsquarters",[1]; [14],90
same,"Plant response rating, Lambsquarters",[1]; [15],95
same,"Plant response rating (scale of 0 to 100), Lambsquarters","[1]; Preemergence, 31 g ai/ha",80
same,"Plant response rating, Lambsquarters",[1]; [16],95
same,"Plant response rating, Lambsquarters",[1]; [17],98
same,"Plant response rating, Lambsquarters",[1]; [18],100
same,"Plant response rating, Lambsquarters",[1]; [19],90
same,Chickweed plant response rating,[2]; [13],98
same,"Plant response rating, Chickweed",[2]; [14],100
same,"Plant response rating, Chickweed",[2]; [15],100
same,"Plant response rating (scale of 0 to 100), Chickweed","[2]; Preemergence, 31 g ai/ha",95
same,"Plant response rating, Chickweed",[2]; [16],100
same,"Plant response rating, Chickweed",[2]; [17],100
same,"Plant response rating, Chickweed",[2]; [18],100
same,"Plant response rating, Chickweed",[2]; [19],98
same,"Plant response rating, Barley, Winter",[3]; [13],0
same,"Plant response rating, Barley, Winter",[3]; [14],0
same,"Plant response rating, Barley, Winter",[3]; [15],10
same,"Plant response rating (scale of 0 to 100), Barley, Winter","[3]; Preemergence, 31 g ai/ha",0
same,"Plant response rating, Barley, Winter",[3]; [16],0
same,"Plant response rating, Barley, Winter",[3]; [17],5
same,"Barley, Winter plant response rating",[3]; [18],20
same,"Plant response rating, Barley, Winter",[3]; [19],0
same,Kochia plant response rating,kochia (Kochia scoparia); [13],90
same,"Plant response rating, Kochia",kochia (Kochia scoparia); [14],100
same,"Plant response rating, Kochia",kochia (Kochia scoparia); [15],100
same,"Plant response rating (scale of 0 to 100), Kochia","kochia (Kochia scoparia); Preemergence, 31 g ai/ha",0
same,"Plant response rating, Kochia",kochia (Kochia scoparia); [16],10
same,"Plant response rating, Kochia",kochia (Kochia scoparia); [17],40
same,"Plant response rating, Kochia",kochia (Kochia scoparia); [18],100
same,"Plant response rating, Kochia",kochia (Kochia scoparia); [19],95
same,"Mustard, Wild plant response rating",[4]; [13],20
same,"Plant response rating, Mustard, Wild",[4]; [14],70
same,"Plant response rating, Mustard, Wild",[4]; [15],85
same,"Plant response rating (scale of 0 to 100), Mustard, Wild","[4]; Preemergence, 31 g ai/ha",0
same,"Plant response rating, Mustard, Wild",[4]; [16],0
same,"Plant response rating, Mustard, Wild",[4]; [17],20
same,"Plant response rating, Mustard, Wild",[4]; [18],60
same,"Plant response rating, Mustard, Wild",[4]; [19],40
same,Galium plant response rating,[5]; [13],100
same,"Plant response rating, Galium",[5]; [14],100
same,"Plant response rating, Galium",[5]; [15],100
same,"Plant response rating (scale of 0 to 100), Galium","[5]; Preemergence, 31 g ai/ha",70
same,"Plant response rating, Galium",[5]; [16],90
same,"Plant response rating, Galium",[5]; [17],95
same,"Plant response rating, Galium",[5]; [18],100
same,"Plant response rating, Galium",[5]; [19],100
same,"Wheat, Winter plant response rating",[6]; [13],0
same,"Plant response rating, Wheat, Winter",[6]; [14],5
same,"Plant response rating, Wheat, Winter",[6]; [15],20
same,"Plant response rating (scale of 0 to 100), Wheat, Winter","[6]; Preemergence, 31 g ai/ha",0
same,"Plant response rating, Wheat, Winter",[6]; [16],0
same,"Plant response rating, Wheat, Winter",[6]; [17],0
same,"Plant response rating, Wheat, Winter",[6]; [18],20
same,"Plant response rating, Wheat, Winter",[6]; [19],0
same,Field Poppy plant response rating,[7]; [13],70
same,"Plant response rating, Field Poppy",[7]; [14],100
same,"Plant response rating, Field Poppy",[7]; [15],100
same,"Plant response rating (scale of 0 to 100), Field Poppy","[7]; Preemergence, 31 g ai/ha",95
same,"Plant response rating, Field Poppy",[7]; [16],100
same,"Plant response rating, Field Poppy",[7]; [17],100
same,"Plant response rating, Field Poppy",[7]; [18],100
same,"Plant response rating, Field Poppy",[7]; [19],80
same,"Bromegrass, Downy plant response rating",[8]; [13],5
same,"Plant response rating, Bromegrass, Downy",[8]; [14],50
same,"Plant response rating, Bromegrass, Downy",[8]; [15],65
same,"Plant response rating (scale of 0 to 100), Bromegrass, Downy","[8]; Preemergence, 31 g ai/ha",40
same,"Plant response rating, Bromegrass, Downy",[8]; [16],65
same,"Plant response rating, Bromegrass, Downy",[8]; [17],80
same,"Plant response rating, Bromegrass, Downy",[8]; [18],85
same,"Plant response rating, Bromegrass, Downy",[8]; [19],25
same,Windgrass plant response rating,[9]; [13],70
same,"Plant response rating, Windgrass",[9]; [14],85
same,"Plant response rating, Windgrass",[9]; [15],85
same,"Plant response rating (scale of 0 to 100), Windgrass","[9]; Preemergence, 31 g ai/ha",75
same,"Plant response rating, Windgrass",[9]; [16],85
same,"Plant response rating, Windgrass",[9]; [17],100
same,"Plant response rating, Windgrass",[9]; [18],100
same,"Plant response rating, Windgrass",[9]; [19],75
same,Russian Thistle plant response rating,[10]; [13],70
same,"Plant response rating, Russian Thistle",[10]; [14],80
same,"Plant response rating, Russian Thistle",[10]; [15],90
same,"Plant response rating (scale of 0 to 100), Russian Thistle","[10]; Preemergence, 31 g ai/ha",10
same,"Plant response rating, Russian Thistle",[10]; [16],25
same,"Plant response rating, Russian Thistle",[10]; [17],40
same,"Plant response rating, Russian Thistle",[10]; [18],90
same,"Plant response rating, Russian Thistle",[10]; [19],75
same,Speedwell plant response rating,[11]; [13],10
same,"Plant response rating, Speedwell",[11]; [14],25
same,"Plant response rating, Speedwell",[11]; [15],80
same,"Plant response rating (scale of 0 to 100), Speedwell","[11]; Preemergence, 31 g ai/ha",35
same,"Plant response rating, Speedwell",[11]; [16],80
same,"Plant response rating, Speedwell",[11]; [17],95
same,"Plant response rating, Speedwell",[11]; [18],100
same,"Plant response rating, Speedwell",[11]; [19],15
same,Deadnettle plant response rating,[12]; [13],5
same,"Plant response rating, Deadnettle",[12]; [14],20
same,"Plant response rating, Deadnettle",[12]; [15],45
same,"Plant response rating (scale of 0 to 100), Deadnettle","[12]; Preemergence, 31 g ai/ha",0
same,"Plant response rating, Deadnettle",[12]; [16],0
same,"Plant response rating, Deadnettle",[12]; [17],0
same,"Plant response rating, Deadnettle",[12]; [18],50
same,"Plant response rating, Deadnettle",[12]; [19],10
